Entries after “also recorded” stand apart in the source; their conditions may differ.
Experiments:
[1] = test system: primary AML patient cells; assay: AML cell engraftment in NSG mice pre-transplanted with doxycycline-induced hIL-8-transgenic bone marrow cells; assay type: in vivo, mouse; conditions: 4 months post-transplantation; for increase of AML cell engraftment vs uninduced control: p=0.0106, N=8
From the text: FIG. 3. Xenotransplantation of primary AML cells into NSG mice pre-transplanted with hIL8-transgenic and doxycycline-induced congenic bone marrow cells leads to a more than 10-fold increase (p=0.0106, N=8) of AML cell engraftment.
We have generated a new transgenic mouse model in which we inserted a doxycycline-inducible human IL-8 transgene into the immunocompromised NSG mouse strain. We then performed congenic transplantation of hIL-8-transgenic bone marrow cells into 8 parental NSG mice, followed by doxycycline-triggered induction of hIL-8 in 4 of the recipient mice. 4 uninduced mice served as a control. We then xenotransplanted 5×10^6 leukemic cells from an AML patient into these animals and determined AML cell engraftment in the bone marrow 4 months post-transplantation. […] We have now a novel transgenic mouse system available that permits for the first time the generation of robust primary xenografts and PDX models from AML and MDS patients' cells, which can be used for drug development and testing purposes as well as functional/mechanistic studies.

[2] = test system: primary samples from AML and high risk MDS cases; conditions: cited from earlier work
[3] = molecular target: T1, CXCR2 (Homo sapiens, UniProt P25025); conditions: cited from earlier work
T1 sequence (P25025 1-360): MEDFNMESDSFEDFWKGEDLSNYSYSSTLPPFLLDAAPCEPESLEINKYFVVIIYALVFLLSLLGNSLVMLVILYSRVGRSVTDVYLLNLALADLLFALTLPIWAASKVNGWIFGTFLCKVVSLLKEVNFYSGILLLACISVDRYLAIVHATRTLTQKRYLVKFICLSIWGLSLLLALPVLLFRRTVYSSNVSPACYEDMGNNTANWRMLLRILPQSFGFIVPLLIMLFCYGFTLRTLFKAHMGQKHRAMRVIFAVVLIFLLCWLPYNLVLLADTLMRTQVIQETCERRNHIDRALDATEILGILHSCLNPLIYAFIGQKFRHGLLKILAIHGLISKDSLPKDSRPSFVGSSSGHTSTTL

[4] = test system: AML cell lines; conditions: all AML cell lines; cited from earlier work
[5] = test system: healthy control CD34+ cells; conditions: cited from earlier work
[6] = test system: patient-derived xenografts from MDS/AML; assay: engraftment of patient-derived MDS/AML xenografts in NSG mice given exogenous recombinant human IL8; assay type: in vivo, mouse; conditions: for engraftment of primary MDS and AML patients' cells: 3 patient derived xenografts (1 AML, 2 MDS)
From the text: FIG. 2A-2E. Efficacy of human IL8 addition in patient-derived xenografts from MDS/AML. […] Averaged data in (C); data from individual subjects in (D). The improvement in engraftment is sustained (as shown for representative PDX) (E).

[7] = test system: IL8; assay: serum IL8 levels by ELISA in patients; assay type: in vivo, human; conditions: 3 patients
From the text: FIG. 1A-1C. IL8 is detectable in MDS/AML serum and correlated with disease severity. ELISA for IL8 was done on controls and MDS and AML patient serum samples. […] IL8 levels were increased after transformation of low risk MDS to higher risk MDS/AML (B) and decreased after treatment with 5-Azacytidine (C).
It was previously shown that IL8 mRNA is overexpressed in MDS and AML cells. It was now determined whether IL8 can be detected in serum of patients with MDS and AML. A total of 33 patients (MDS low risk (21), MDS high risk (6) and AML (6)) and 30 controls sera were collected and analyzed for IL8 levels by ELISA. […] Furthermore, IL8 levels went up in 3 patients that transformed from low risk MDS to higher risk MDS or AML (FIG. 1B). Additionally, IL8 levels dropped after treatment in another 3 patients that were treated with 5-Azacytidine (FIG. 1C).

## hIL-8: human IL-8 expressed from doxycycline-inducible transgene in transplanted bone marrow cells of NSG mice
[1]; doxycycline-induced hIL-8, 5×10^6 leukemic cells
  AML cell engraftment in the bone marrow (average): 42.2%
[1]
  increase of AML cell engraftment vs uninduced control: 10.4 fold
[1]; listed as hIL8
  increase of AML cell engraftment vs uninduced control: more than 10 fold

## NS(=O)(=O)c1c(Cl)ccc(NC(=O)Nc2cccc(Cl)c2Cl)c1O [SB332235]
[2]
  proliferation in primary samples: significant inhibition of proliferation
[3]
  selectivity for CXCR2 over CXCR1: 100 fold
[4]
  proliferation: dose dependent decrease in proliferation
[5]
  growth of healthy control CD34+ cells: only minimally affecting growth

## rhIL8: exogenous recombinant human IL8 injected into xenotransplant recipient mice
[6]
  engraftment of primary MDS and AML patients' cells: increased engraftment
[6]; listed as IL8
  engraftment of primary MDS and AML patients' cells: highly significant increase
[6]; NSG mice, after 3 weeks of treatment, vs vehicle controls
  engraftment from AML sample: higher engraftment

## Nc1ncn([C@@H]2O[C@H](CO)[C@@H](O)[C@H]2O)c(=O)n1 [5-Azacytidine]
[7]
  IL8 levels in serum after treatment: decreased; also recorded: dropped

From patent publication US20210355501A1, “INTERLEUKIN-8 FOR MAINTENANCE OF HUMAN ACUTE MYELOID LEUKEMIA AND MYELODYSPLASTIC SYNDROME AND USES THEREOF” (Albert Einstein College of Medicine, priority 2018, published 2021)
